From patent publication US7410986B2, “4-6-diphenyl pyridine derivatives as antiinflammatory agents” (Bayer Aktiengesellschaft, priority 2000, dated 2008)
Structures can show the parent of a compound that is named as a salt. Where two headings read alike, the source gives them in different places.

What was measured:
[1] = tested on: RANTES production in response to TNF-α from A549 cells; experiment: RANTES production in response to TNF-α from A549 cells; format: cell-based, human; settings: 100 ng/ml TNF-α, compounds of about 40 to 90% purity, read-out: Cellular activity grade (A549, IC50)
human IKK-β = biological target: T1, human IKK-β (Homo sapiens, UniProt O14920); experiment: IKK-β kinase inhibitory assay; format: biochemical; settings: compounds of about 40 to 90% purity, read-out: In vitro activity grade (invitro, IC50)
T1 construct: A cDNA fragment encoding human IKK-β open reading frame was generated by PCR; His; made in house; host or cells: Sf21 insect cells (baculovirus); the GST-IκBα substrate was made in E. coli
T1 sequence (O14920 1-756): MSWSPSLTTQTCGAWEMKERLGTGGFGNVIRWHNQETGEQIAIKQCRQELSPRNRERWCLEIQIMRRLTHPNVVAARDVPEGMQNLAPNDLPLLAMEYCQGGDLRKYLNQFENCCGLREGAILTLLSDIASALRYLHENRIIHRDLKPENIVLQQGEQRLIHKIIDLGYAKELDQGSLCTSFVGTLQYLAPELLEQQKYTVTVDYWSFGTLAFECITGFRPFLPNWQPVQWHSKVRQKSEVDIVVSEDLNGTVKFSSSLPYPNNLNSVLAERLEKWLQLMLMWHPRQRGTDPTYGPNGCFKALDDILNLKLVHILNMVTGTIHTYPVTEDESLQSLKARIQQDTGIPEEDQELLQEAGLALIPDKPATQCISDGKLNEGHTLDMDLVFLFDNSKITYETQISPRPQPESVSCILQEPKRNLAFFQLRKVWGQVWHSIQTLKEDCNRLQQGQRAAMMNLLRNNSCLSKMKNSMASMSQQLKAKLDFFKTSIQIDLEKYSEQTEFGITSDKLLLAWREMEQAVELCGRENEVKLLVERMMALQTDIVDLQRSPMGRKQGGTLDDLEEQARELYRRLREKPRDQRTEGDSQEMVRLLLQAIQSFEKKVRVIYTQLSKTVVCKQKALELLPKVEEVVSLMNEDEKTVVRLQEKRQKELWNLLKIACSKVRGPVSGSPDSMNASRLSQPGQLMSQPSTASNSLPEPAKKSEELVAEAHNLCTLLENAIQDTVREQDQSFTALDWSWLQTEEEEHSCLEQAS
Source text: IKK-β Kinase Inhibitory Assay.
• (1) Preparation of IKK-β Kinase Protein. • A cDNA fragment encoding human IKK-β open reading frame was generated by PCR with the use of a pair of primers designed from the published sequence (Woronicz J D et al. (1997) Science 278,866-869). A template was obtained from Quickclone cDNA (Clontech) using Elongase™ Amplification kit (Life Technologies). The DNA fragments generated by PCR were gel-purified and subcloned into pBluescript. The cDNA fragment cloned in pBluescript was inserted into pcDNA3.1/His C KpnI/NotI, and transferred into pVL1393 SmaI/XbaI (Pharmingen) to construct a baculovirus transfer vector. Then the vector, together with the linearized baculovirus (BaculoGold™, Pharmingen) was used to transfect Sf21 cells (Invitrogen, San Diego, Calif.). Generated recombinant baculovirus was cloned and amplified in Sf21 cells, grown in TNM-FH insect cell medium (Life Technologies, Inc.) supplemented with 10% FCS, […] Gentamycin, 0.1% Pluronic F-68 (Life Technologies, Inc.) as suspension culture (200 ml in 1 L Erlenmeyer flask; 27° C.; 130 rpm). Sf21 cells were infected with this amplified virus with a multiplicity of infection of 5 following standard protocols (Crossen R, Gruenwald S (1997) Baculovirus Expression Vector System Instruction Manual, Pharmingen Corporation) and harvested 48 hrs. later. The cells were lysed to obtain the produced chimeric protein of IKK-β kinase fused by histidine (His-tagged IKK-beta). • (2) The Preparation of Purified GST-IκBα Fusion Proteins • An expression vector containing the nucleotide sequence encoding fusion protein of GST with amino acid residues 1 to 54 of IκBα under the control of an IPTG-inducible promoter was constructed. The expression vector was introduced in E. coli and the transformant was cultured and lysed to obtain a GST-IκBα fusion protein. Then the resulting GST-IκBα fusion protein was purified and biotinated for kinase assay. • (3) The Measurement of IKK-β Kinase Activity • The 96-well format kinase assay of IKK-β was performed to test the inhibitory activity of the compounds of the present invention. First, 5 μl of a test compound was put in the presence of 2.5% dimethyl sulfoxide (DMSO) in each well in a U-bottomed 96-well plate (Falcon). For control wells of background (BG) and total phosphorylation (TP), 5 μl of 2.5% DMSO was put. Recombinant IKK-β (final 0.6 μg/ml) and bio-GST-IκBα (1-54) (final 0.2 μM) were diluted in 25 μl of 2×kinase buffer β (40 mM Tris-HCl, pH 7.6, 40 mM MgCl2, 40 mM β-glycerophosphate, 40 mM p-nitrophenyl-phosphate, 2 mM EDTA, 40 mM creatine phosphate, 2 mM DTT, 2 mM Na3VO4, 0.2 mg/ml BSA and 0.8 mM phenylmethylsulfonyl fluoride) and transferred to the 96-well plate. Bio-GST-IκBα (1-54) in 25 μl of 2×kinase buffer β without IKK-β was transferred to BG wells. Then 20 μl of 12.5 μM ATP, 62.5 μCi/ml [γ-^33P] ATP (Amersham Pharmacia Biotech) was added and the resulting mixture was incubated for 2 hrs. at room temperature. The kinase reactions were terminated by the addition of 150 μl of termination buffer (100 mM EDTA, 1 mg/ml BSA, 0.2 mg NaN3). One handred and fifty μl of the sample was transferred to a streptavidin-coated, white MTP (Steffens Biotechniche Analysen GmbH #08114E14. FWD) to capture the biotinylated substrates. After 1 hr. of incubation, non-bound radioactivity was eliminated by washing the wells five times with 300 μl of washing buffer including 0.9% NaCl and 0.1% (w/v) Tween-20 with the use of a MW-96 plate washer (BioTec). The bound radioactivity was determined after the addition of 170 μl MicroScint-PS scintillation cocktail (Packard) using a TopCount scintillation counter. Syk Tyrosine Kinase Inhibitory Assay for Selectivity. • (1) Preparation of Syk Protein • A cDNA fragment encoding human Syk openreading frame was cloned from total RNA of human Burkitt's lymphoma B cell lines, Raji (American Type Culture Collection), with the use of RT-PCR method. […]

Structure (SMILES) | IC50 ([1]; 24 hrs) [µM] | IC50 (human IKK-β) [µM] | IC50 ([1]; Homo sapiens, A549, 24 h) [µM]
N#Cc1c(-c2cccc(NC(=O)C[C@H](N)C(=O)O)c2)cc(-c2ccccc2O)nc1N [Example 2-02] | > 10 | 0.5 to 2 | 
N#Cc1c(-c2ccccc2C(=O)O)cc(-c2ccccc2O)nc1N [Example 5-05] |  | 0.5 to 2 | > 10
N#Cc1c(-c2cccc(O)c2)cc(-c2ccccc2O)nc1N [Example 1-23] |  | < 0.5 | 1 to 10
CS(=O)(=O)Nc1cccc(-c2cc(-c3ccccc3O)nc(N)c2C#N)c1 [Example 1-06] |  | 2 to 10 | 1 to 10
CN(C)c1ccc(NC(=O)CCN2CCCCC2)cc1-c1cc(-c2ccccc2O)nc(N)c1C#N [Example 3-09] |  | 2 to 10 | 1 to 10
N#Cc1c(-c2cccc(NC(=O)[C@@H](N)CC(=O)O)c2)cc(-c2ccccc2O)nc1N [Example 2-03] |  | 0.5 to 2 | > 10
COc1ccc(O)c(-c2cc(-c3cccc(NC(=O)C(O)CCC(=O)O)c3)c(C#N)c(N)n2)c1 (centres unmarked) [Example 1-18] |  | 2 to 10 | > 10
N#Cc1c(-c2cccc(NC(=O)CN3CCNCC3)c2)cc(-c2ccccc2O)nc1N [Example 4-07] |  | 0.5 to 2 | 1 to 10
CC(C)C[C@H](N)C(=O)Nc1ccc(F)c(-c2cc(-c3ccccc3O)nc(N)c2C#N)c1 [Example 2-11] |  | 0.5 to 2 | 1 to 10
N#Cc1c(-c2cccc(NC(=O)CCN3CCC(C(=O)O)CC3)c2)cc(-c2ccccc2O)nc1N [Example 4-28] |  | 2 to 10 | > 10
N#Cc1c(-c2ccc(Cl)c(NC(=O)CNCC3CC3)c2)cc(-c2ccccc2O)nc1N [Example 4-30] |  | 0.5 to 2 | > 10
N#Cc1c(-c2ccc(N3CCCCC3)c(NC(=O)CCN)c2)cc(-c2ccccc2O)nc1N [Example 3-03] |  | < 0.5 | 1 to 10
N#Cc1c(-c2ccc(C(=O)NCCN3CCCCC3)cc2)cc(-c2ccccc2O)nc1N [Example 6-02] |  | 0.5 to 2 | > 10
N#Cc1c(-c2cccc(NC(=O)C(O)CCC(=O)O)c2)cc(-c2ccccc2O)nc1N (centres unmarked) [Example 1-2, Sodium 5-({3-[2-amino-3-cyano-6-(2-hydroxyphenyl)-4-pyridinyl]phenyl}amino)-4-hydroxy-5-oxopentanoate] |  | 0.5 to 2 | > 10
CN(C)c1ccc(-c2cc(-c3ccccc3O)nc(N)c2C#N)cc1NC(=O)CNCC1CC1 [Example 4-1, N^1-[5-[2-amino-3-cyano-6-(2-hydroxyphenyl)-4-pyridinyl]-2-(dimethylamino)phenyl]-N^2-(cyclopropylmethyl)glycinamide hydrochloride] |  | 0.5 to 2 | 1 to 10
Nc1cccc(-c2cc(-c3ccccc3O)nc(N)c2C(=O)O)c1 [Example 7-1, Sodium 2-amino-4-(3-aminophenyl)-6-(2-hydroxyphenyl)nicotinate] |  | 2 to 10 | > 10
N#Cc1c(-c2cccc(NC(=O)CCN3CCN(CCO)CC3)c2)cc(-c2ccccc2O)nc1N [Example 4-13] |  | 0.5 to 2 | 1 to 10
COc1cccc(O)c1-c1cc(-c2cccc(NC(=O)C(O)CCC(=O)O)c2)c(C#N)c(N)n1 (centres unmarked) [Example 1-13] |  | 0.5 to 2 | > 10
N#Cc1c(-c2ccc(OCC3CC3)c(NC(=O)CNCC3CC3)c2)cc(-c2ccccc2O)nc1N [Example 4-34] |  | > 10 | 1 to 10
CC(=O)Nc1ccc(-c2cc(-c3ccccc3O)nc(N)c2C#N)cc1OCCN1CCCCC1 [Example 9, N-{4-[2-amino-3-cyano-6-(2-hydroxyphenyl)-4-pyridinyl]-2-[2-(1-piperidinyl)ethoxy]phenyl}acetamide ditrifluoroacetate] |  | 0.5 to 2 | 1 to 10
N#Cc1c(-c2cccc(NC(=O)CCN3CCCC(C(=O)O)C3)c2)cc(-c2ccccc2O)nc1N (centres unmarked) [Example 4-29] |  | 0.5 to 2 | > 10
CCCCNCC(=O)Nc1cc(-c2cc(-c3ccccc3O)nc(N)c2C#N)ccc1OCC1CC1 [Example 4-33] |  | > 10 | > 10
